# Laboratory results reported in PMC4754898, “Discovery of Radioiodinated Monomeric Anthraquinones as a Novel Class of Necrosis Avid Agents for Early Imaging of Necrotic Myocardium” (Scientific Reports, 2016).
# Columns and labels:
# [1] = In vitro stability of 131I-anthraquinones in rat serum by TLC; format: in vitro ADME; details: 37 °C, 24 h
# Procedure: Iodogen ([…]-3a, 6a-diphenylglycouracil; Sigma, St. Louis, MO) was dissolved in dichloromethane and deposited on the wall of tubes as a thin film. Radioiodination was initiated by adding dimethylsulfoxide (DMSO) solutions of each anthraquinone (1.25 mg/mL) and Na^131I solutions (4:1, v/v) into Iodogen-coated tube, adjusting pH with phosphate buffered saline (PBS, pH 7.4). Then these mixtures were shaken and incubated at 45 °C for 2–4 h, and radiochemical purity was determined by thin-layer chromatography (TLC) using Whatman No.1 filter paper and 0.1 M hydrochloric acid as the developing solvent. Then the solvent was evaporated, the paper was cut in half and measured the radioactivity by direct γ-counting (WIZARD1470; PerkinElmer, USA). For obtaining the injectants, these mixtures were diluted with propylene glycol and polyethylene glycol 400 (1:1, v/v), respectively.
# In vitro stability of eight ^131I-anthraquinones were tested in rat serum, 0.1 mL injectant was added to 0.9 mL rat serum (1:9, v/v) and incubated at 37 °C. Then radiolabeling stability was determined by TLC using the procedure described above at the time points of 0.5 h, 6 h, 12 h and 24 h, respectively.
# [2] = system: necrotic muscle; assay: Biodistribution in mice with muscular necrosis (gamma counting); format: in vivo, Kunming mice; details: model mice, 0.37 MBq i.v.
# Procedure: All animals were given 0.12% potassium iodide in drinking water from 3 days before the experiment till the end of experiment to protect the thyroid gland from taking up free ^131I.
# Each mouse was intramuscularly injected with 0.1 mL absolute alcohol in the left hind limb to induce muscular necrosis.
# At least 12 h after recovery from surgery, each model mouse was intravenously administrated with 0.37 MBq of ^131I-anthraquinones and each rat was intravenously injected with 3.7 MBq of ^131I-rhein or ^131I-Hyp for pharmacological evaluations. All animals were intravenously administered with 0.1 ml of 1% Evans blue solution for intravital staining of necrosis that helped to selectively sample bluish necrotic tissues for radioactivity quantification.
# One hundred and twenty model mice were randomly divided into 24 groups for eight tracers (n = 5 per compound and per time point). Mice were sacrificed by cervical dislocation at 2 h, 12 h and 24 h after administration. Necrotic and normal tissues of interest (blood, thyroid, lung, heart, liver, spleen, stomach, kidney, viable/necrotic muscle) were sampled, and wet weighed with the radioactivity measured by a γ-counter. Background radiation and physical decay were corrected during counting. The results were expressed as percentage of the injected dose per gram of tissue (%ID/g). Ratios of radioactivity concentrations between in necrotic and viable muscle were calculated.
# [3] = system: necrotic muscle; assay: TTC staining and quantitative autoradiography of necrotic and viable muscle; parameters: species or system Kunming mice; details: mouse, in vivo
# Procedure: The necrotic muscles were stained in 2% TTC solution at 37 °C for 15 min and digitally photographed, then cut into 50 μm frozen sections with a cryotome (Shandon FSE, Thermo Fisher Scientific Co., Waltham, MA, USA) for autoradiography. Autoradiographs of these sections were obtained by exposure to a high-performance storage phosphor screen (Cyclone; Canberra-Packard, Ontario, Canada) for 6–48 h and digitally photographed with Optiquant software (Pacard, Packard Meriden, CT, USA). Relative tracer concentrations in necrotic muscles were evaluated by regions of interest analysis and the results were compared with that from the corresponding viable muscles.
# [4] = In vitro stability of 131I-rhein in rat serum by radio-HPLC; format: in vitro ADME; details: 37 °C, 24 h
# Procedure: Reversed-phase high performance liquid chromatography (RP-HPLC) was equipped with Waters 2998 PDA detector, HERM LB500 radiometric detector (Berthold Technologies, Germany), a pump (Waters 2695) and a Alltima C18 column (250 × 4.6 mm, 5 μm, GRACE). The mobile phase was methanol/0.1% phosphoric acid in water (80:20, v/v), the flow rate was 1.0 mL/min and the temperature of column was 30 °C. All solvents used for HPLC analysis were HPLC grade.
# ^131I-rhein was incubated in rat serum at 37 °C for 24 h, and the mixture was mixed with methanol at a ratio of 2:3 and shaken. After centrifuging the mixture at 12000 rpm for 10 min, the supernatant was collected and passed through 0.22-μm pore-size filters (Membrana, Wuppertal, NRW, Germany) for in vitro stability analysis by radio-HPLC as described above.
# [5] = Pharmacokinetics (blood clearance) in normal rats; format: in vivo, Sprague-Dawley rats
# Procedure: For the pharmacokinetic study, six healthy rats were intravenously injected with ^131I-rhein under anesthesia. The blood samples (10 μL) were collected by means of a tail incision at 5 min, 10 min, 30 min, 1 h, 2 h, 4 h, 6 h, 8 h, 10 h, 12 h and 24 h after administration. The radioactivity of blood samples was measured and the results were expressed as megabecquerel per liter (MBq/L). The blood pharmacokinetic parameters of the radiotracer were analyzed by using the non-compartmental analysis of Drug and Statistics for windows 2.0 software.
# [6] = system: necrotic myocardium; assay: SPECT/CT imaging of rats with reperfused MI or sham operation; format: in vivo, Sprague-Dawley rats; details: 6 h after administration
# [7] = system: infarcted myocardium; assay: Autoradiography of MI heart sections from model rats; format: in vivo, Sprague-Dawley rats; details: 50 μm frozen sections
# [8] = system: necrotic myocardium; details: rat, in vivo, iv
smiles,measurement,setting,value
O=C1c2ccccc2C(=O)c2c1ccc([131I])c2O [^131I-1-hydroxyanthraquinone],stability after incubation in rat plasma (TLC),[1],87.93% ± 0.45%
same,Blood uptake,[2]; 2 h after administration,3.19 ± 0.35 %ID/g
same,Heart uptake,[2]; 2 h after administration,0.58 ± 0.06 %ID/g
same,Kidney uptake,[2]; 2 h after administration,1.64 ± 0.17 %ID/g
same,Liver uptake,[2]; 2 h after administration,1.07 ± 0.11 %ID/g
same,Lung uptake,[2]; 2 h after administration,1.12 ± 0.09 %ID/g
same,N/V ratio (necrotic muscle/viable muscle),[2]; 2 h after administration,3.71 ± 0.37
same,Necrotic.m (necrotic muscle) uptake,[2]; 2 h after administration,2.75 ±0.31 %ID/g
same,Spleen uptake,[2]; 2 h after administration,1.04 ± 0.08 %ID/g
same,Stomach uptake,[2]; 2 h after administration,1.40 ± 0.13 %ID/g
same,Thyroid uptake,[2]; 2 h after administration,1.53 ± 0.21 %ID/g
same,Viable.m (viable muscle) uptake,[2]; 2 h after administration,0.74 ± 0.05 %ID/g
same,Blood uptake,[2]; 12 h after administration,0.66 ± 0.04 %ID/g
same,Heart uptake,[2]; 12 h after administration,0.11 ± 0.01 %ID/g
same,Kidney uptake,[2]; 12 h after administration,0.37 ± 0.02 %ID/g
same,Liver uptake,[2]; 12 h after administration,0.24 ± 0.03 %ID/g
same,Lung uptake,[2]; 12 h after administration,0.33 ± 0.04 %ID/g
same,N/V ratio (necrotic muscle/viable muscle),[2]; 12 h after administration,4.22 ± 0.02
same,Necrotic.m (necrotic muscle) uptake,[2]; 12 h after administration,0.59 ± 0.05 %ID/g
same,Spleen uptake,[2]; 12 h after administration,0.26 ± 0.02 %ID/g
same,Stomach uptake,[2]; 12 h after administration,0.82 ± 0.09 %ID/g
same,Thyroid uptake,[2]; 12 h after administration,0.46 ± 0.03 %ID/g
same,Viable.m (viable muscle) uptake,[2]; 12 h after administration,0.14 ± 0.01 %ID/g
same,Blood uptake,[2]; 24 h after administration,0.07 ± 0.01 %ID/g
same,Heart uptake,[2]; 24 h after administration,0.02 ± 0.00 %ID/g
same,Kidney uptake,[2]; 24 h after administration,0.04 ± 0.01 %ID/g
same,Liver uptake,[2]; 24 h after administration,0.08 ± 0.01 %ID/g
same,Lung uptake,[2]; 24 h after administration,0.05 ± 0.01 %ID/g
same,N/V ratio (necrotic muscle/viable muscle),[2]; 24 h after administration,5.83 ± 0.29
same,Necrotic.m (necrotic muscle) uptake,[2]; 24 h after administration,0.35 ± 0.02 %ID/g
same,Spleen uptake,[2]; 24 h after administration,0.02 ± 0.00 %ID/g
same,Stomach uptake,[2]; 24 h after administration,0.09 ± 0.01 %ID/g
same,Thyroid uptake,[2]; 24 h after administration,0.33 ± 0.04 %ID/g
same,Viable.m (viable muscle) uptake,[2]; 24 h after administration,0.06 ± 0.00 %ID/g
same,necrotic/viable muscle ratio by quantitative autoradiography,[3],9.16 ± 0.78
O=C(O)c1cc(O)c2c(c1)C(=O)c1ccc([131I])c(O)c1C2=O [^131I-rhein],stability after incubation in rat plasma (TLC),[1],93.17% ± 0.38%
same,intact parent tracer after incubation in rat serum (radio-HPLC),[4],91.75% ± 0.47%
same,Blood uptake,[2]; 2 h after administration,3.14 ± 0.32 %ID/g
same,Heart uptake,[2]; 2 h after administration,0.47 ± 0.05 %ID/g
same,Kidney uptake,[2]; 2 h after administration,2.68 ± 0.47 %ID/g
same,Liver uptake,[2]; 2 h after administration,2.03 ± 0.21 %ID/g
same,Lung uptake,[2]; 2 h after administration,0.95 ± 0.06 %ID/g
same,N/V ratio (necrotic muscle/viable muscle),[2]; 2 h after administration,5.84 ± 0.10
same,Necrotic.m (necrotic muscle) uptake,[2]; 2 h after administration,4.61 ± 0.39 %ID/g
same,Spleen uptake,[2]; 2 h after administration,0.97 ± 0.13 %ID/g
same,Stomach uptake,[2]; 2 h after administration,1.40 ± 0.16 %ID/g
same,Thyroid uptake,[2]; 2 h after administration,1.56 ± 0.17 %ID/g
same,Viable.m (viable muscle) uptake,[2]; 2 h after administration,0.79 ± 0.08 %ID/g
same,Blood uptake,[2]; 12 h after administration,1.20 ± 0.13 %ID/g
same,Heart uptake,[2]; 12 h after administration,0.28 ± 0.03 %ID/g
same,Kidney uptake,[2]; 12 h after administration,2.03 ± 0.12 %ID/g
same,Liver uptake,[2]; 12 h after administration,1.55 ± 0.12 %ID/g
same,Lung uptake,[2]; 12 h after administration,0.62 ± 0.05 %ID/g
same,N/V ratio (necrotic muscle/viable muscle),[2]; 12 h after administration,7.26 ± 0.23
same,Necrotic.m (necrotic muscle) uptake,[2]; 12 h after administration,4.06 ± 0.16 %ID/g
same,Spleen uptake,[2]; 12 h after administration,0.65 ± 0.08 %ID/g
same,Stomach uptake,[2]; 12 h after administration,1.05 ± 0.11 %ID/g
same,Thyroid uptake,[2]; 12 h after administration,0.78 ± 0.07 %ID/g
same,Viable.m (viable muscle) uptake,[2]; 12 h after administration,0.56 ± 0.04 %ID/g
same,Blood uptake,[2]; 24 h after administration,0.15 ± 0.01 %ID/g
same,Heart uptake,[2]; 24 h after administration,0.08 ± 0.01 %ID/g
same,Kidney uptake,[2]; 24 h after administration,0.65 ± 0.07 %ID/g
same,Liver uptake,[2]; 24 h after administration,0.49 ± 0.05 %ID/g
same,Lung uptake,[2]; 24 h after administration,0.18 ± 0.03 %ID/g
same,N/V ratio (necrotic muscle/viable muscle),[2]; 24 h after administration,12.33 ± 0.67
same,Necrotic.m (necrotic muscle) uptake,[2]; 24 h after administration,0.74 ± 0.04 %ID/g
same,Spleen uptake,[2]; 24 h after administration,0.29 ± 0.03 %ID/g
same,Stomach uptake,[2]; 24 h after administration,0.09 ± 0.02 %ID/g
same,Thyroid uptake,[2]; 24 h after administration,0.32 ± 0.06 %ID/g
same,Viable.m (viable muscle) uptake,[2]; 24 h after administration,0.06 ± 0.00 %ID/g
same,necrotic/viable muscle ratio by quantitative autoradiography,[3],17.64 ± 1.28
same,radioactivity concentration in blood as share of peak radioactivity concentration,[5]; 6 h,23.47% ± 1.91%
same,AUC(0 –∞),"[5]; i.v. 3.7 MBq, blood",211.76 ± 31.18 MBq/L*h
same,CLZ (clearance),"[5]; i.v. 3.7 MBq, blood",0.67 ± 0.17 mL/min/kg
same,Cmax,"[5]; i.v. 3.7 MBq, blood",42.40 ± 5.41 MBq/L
same,Tmax,"[5]; i.v. 3.7 MBq, blood",4.8 ± 0 min
same,VZ,"[5]; i.v. 3.7 MBq, blood",0.42 ± 0.06 L/kg
same,t1/2z (elimination half-life),"[5]; i.v. 3.7 MBq, blood",8.20 ± 0.49 h
same,AUC(0 –t),"[5]; i.v. 3.7 MBq, within 24 h, blood",187.46 ± 28.26 MBq/L*h
same,SPECT/CT imaging outcome in the heart,[6],Relatively high uptake as a hot spot showed up in the heart of the model rat
same,activity in infarcted myocardium relative to viable myocardium (autoradiography),[7],14 fold
same,necrotic/viable myocardium ratio,[8],about 9.81 ± 0.61
same,radioactivity concentration in blood,[8]; 6 h,0.36 ± 0.03 %ID/g
same,radioactivity concentration in infarcted myocardium,[8]; 6 h,1.18 ± 0.03 %ID/g
same,radioactivity concentration in kidney,[8]; 6 h,0.68 ± 0.04 %ID/g
same,radioactivity concentration in liver,[8]; 6 h,0.14 ± 0.01 %ID/g
same,radioactivity concentration in lung,[8]; 6 h,0.24 ± 0.02 %ID/g
same,radioactivity concentration in viable myocardium,[8]; 6 h,0.12 ± 0.01 %ID/g
